Measurements from the NIST ThermoML archive (doi:10.1021/je060339m).
Numbers after ± are expanded uncertainties.

Conditions: Liquid

CCCCOC(C)=O [butyl ethanoate]
Conditions	mass density [kg/m3]
298.15 K, 100 kPa	875.7 ± 3.2
298.15 K, 1000 kPa	876.3 ± 3.3
298.15 K, 2000 kPa	877.2 ± 3.4
298.15 K, 3000 kPa	878 ± 3.5
298.15 K, 3100 kPa	878.1 ± 3.5
298.15 K, 5000 kPa	879.9 ± 3.7
298.15 K, 10000 kPa	883.8 ± 4.3
298.15 K, 15000 kPa	887.6 ± 4.9
298.15 K, 20000 kPa	891.3 ± 5.5
298.15 K, 25000 kPa	894.9 ± 6.1
298.15 K, 30000 kPa	899.1 ± 6.7
298.15 K, 35000 kPa	903.7 ± 7.3
303.15 K, 100 kPa	870.4 ± 3.1
303.15 K, 1000 kPa	871.1 ± 3.3
303.15 K, 2000 kPa	872 ± 3.4
303.15 K, 3000 kPa	872.9 ± 3.5
303.15 K, 3100 kPa	873 ± 3.5
303.15 K, 5000 kPa	874.7 ± 3.7
303.15 K, 10000 kPa	878.8 ± 4.3
303.15 K, 15000 kPa	882.8 ± 4.9
303.15 K, 20000 kPa	886.5 ± 5.5
303.15 K, 25000 kPa	890.2 ± 6.1
303.15 K, 30000 kPa	894.4 ± 6.7
303.15 K, 35000 kPa	899.1 ± 7.3
308.15 K, 100 kPa	865.1 ± 3.1
308.15 K, 1000 kPa	865.9 ± 3.3
308.15 K, 2000 kPa	866.9 ± 3.4
308.15 K, 3000 kPa	867.8 ± 3.5
308.15 K, 3100 kPa	867.8 ± 3.5
308.15 K, 5000 kPa	869.6 ± 3.7
308.15 K, 10000 kPa	873.9 ± 4.3
308.15 K, 15000 kPa	878 ± 4.9
308.15 K, 20000 kPa	881.9 ± 5.5
308.15 K, 25000 kPa	885.6 ± 6.1
308.15 K, 30000 kPa	890 ± 6.7
308.15 K, 35000 kPa	894.8 ± 7.3
313.15 K, 100 kPa	859.9 ± 3.1
313.15 K, 1000 kPa	860.8 ± 3.3
313.15 K, 2000 kPa	861.7 ± 3.4
313.15 K, 3000 kPa	862.7 ± 3.5
313.15 K, 3100 kPa	862.7 ± 3.5
313.15 K, 5000 kPa	864.6 ± 3.7
313.15 K, 10000 kPa	869 ± 4.3
313.15 K, 15000 kPa	873.2 ± 4.9
313.15 K, 20000 kPa	877.2 ± 5.5
313.15 K, 25000 kPa	881 ± 6.1
313.15 K, 30000 kPa	885.6 ± 6.7
313.15 K, 35000 kPa	890.5 ± 7.3
318.15 K, 100 kPa	854.9 ± 3.1
318.15 K, 1000 kPa	855.7 ± 3.3
318.15 K, 2000 kPa	856.7 ± 3.4
318.15 K, 3000 kPa	857.8 ± 3.5
318.15 K, 3100 kPa	857.9 ± 3.5
318.15 K, 5000 kPa	859.6 ± 3.7
318.15 K, 10000 kPa	864.2 ± 4.3
318.15 K, 15000 kPa	868.5 ± 4.9
318.15 K, 20000 kPa	872.6 ± 5.5
318.15 K, 25000 kPa	876.5 ± 6.1
318.15 K, 30000 kPa	881.3 ± 6.7
318.15 K, 35000 kPa	886.3 ± 7.3
323.15 K, 100 kPa	849.7 ± 3.1
323.15 K, 1000 kPa	851 ± 3.3
323.15 K, 2000 kPa	852 ± 3.4
323.15 K, 3000 kPa	853 ± 3.5
323.15 K, 3100 kPa	853.1 ± 3.5
323.15 K, 5000 kPa	854.6 ± 3.7
323.15 K, 10000 kPa	859.4 ± 4.3
323.15 K, 15000 kPa	863.9 ± 4.9
323.15 K, 20000 kPa	868.1 ± 5.5
323.15 K, 25000 kPa	872.3 ± 6.1
323.15 K, 30000 kPa	877.3 ± 6.7
323.15 K, 35000 kPa	882.4 ± 7.3
328.15 K, 100 kPa	844.6 ± 3.1
328.15 K, 1000 kPa	845.7 ± 3.3
328.15 K, 2000 kPa	846.8 ± 3.4
328.15 K, 3000 kPa	847.9 ± 3.5
328.15 K, 3100 kPa	848 ± 3.5
328.15 K, 5000 kPa	849.7 ± 3.7
328.15 K, 10000 kPa	854.6 ± 4.3
328.15 K, 15000 kPa	859.3 ± 4.9
328.15 K, 20000 kPa	863.6 ± 5.5
328.15 K, 25000 kPa	867.8 ± 6.1
328.15 K, 30000 kPa	872.5 ± 6.7
328.15 K, 35000 kPa	877.7 ± 7.3
333.15 K, 100 kPa	839.6 ± 3.2
333.15 K, 1000 kPa	840.7 ± 3.3
333.15 K, 2000 kPa	841.8 ± 3.4
333.15 K, 3000 kPa	842.9 ± 3.5
333.15 K, 3100 kPa	842.9 ± 3.5
333.15 K, 5000 kPa	844.9 ± 3.7
333.15 K, 10000 kPa	850 ± 4.3
333.15 K, 15000 kPa	854.8 ± 4.9
333.15 K, 20000 kPa	859.3 ± 5.5
333.15 K, 25000 kPa	863.6 ± 6.1
333.15 K, 30000 kPa	868.6 ± 6.7
333.15 K, 35000 kPa	873.9 ± 7.3
338.15 K, 100 kPa	834.5 ± 3.2
338.15 K, 1000 kPa	835.6 ± 3.3
338.15 K, 2000 kPa	836.7 ± 3.4
338.15 K, 3000 kPa	837.9 ± 3.5
338.15 K, 3100 kPa	838 ± 3.5
338.15 K, 5000 kPa	840.1 ± 3.7
338.15 K, 10000 kPa	845.5 ± 4.3
338.15 K, 15000 kPa	850.1 ± 4.9
338.15 K, 20000 kPa	855 ± 5.5
338.15 K, 25000 kPa	859.5 ± 6.1
338.15 K, 30000 kPa	864.6 ± 6.7
338.15 K, 35000 kPa	870.1 ± 7.3
343.15 K, 100 kPa	829.5 ± 3.2
343.15 K, 1000 kPa	830.5 ± 3.3
343.15 K, 2000 kPa	831.7 ± 3.4
343.15 K, 3000 kPa	832.9 ± 3.5
343.15 K, 3100 kPa	833 ± 3.5
343.15 K, 5000 kPa	835.2 ± 3.7
343.15 K, 10000 kPa	840.7 ± 4.3
343.15 K, 15000 kPa	845.7 ± 4.9
343.15 K, 20000 kPa	850.5 ± 5.5
343.15 K, 25000 kPa	855.1 ± 6.1
343.15 K, 30000 kPa	860.7 ± 6.7
343.15 K, 35000 kPa	866.3 ± 7.3
348.15 K, 100 kPa	824.4 ± 3.2
348.15 K, 1000 kPa	825.4 ± 3.3
348.15 K, 2000 kPa	826.7 ± 3.4
348.15 K, 3000 kPa	827.9 ± 3.5
348.15 K, 3100 kPa	828 ± 3.5
348.15 K, 5000 kPa	830.5 ± 3.7
348.15 K, 10000 kPa	836.1 ± 4.3
348.15 K, 15000 kPa	841.3 ± 4.9
348.15 K, 20000 kPa	846.2 ± 5.5
348.15 K, 25000 kPa	850.9 ± 6.1
348.15 K, 30000 kPa	856.6 ± 6.7
348.15 K, 35000 kPa	862.4 ± 7.3
353.15 K, 100 kPa	819.3 ± 3.2
353.15 K, 1000 kPa	820.4 ± 3.3
353.15 K, 2000 kPa	821.7 ± 3.4
353.15 K, 3000 kPa	822.9 ± 3.5
353.15 K, 3100 kPa	823 ± 3.5
353.15 K, 5000 kPa	825.5 ± 3.7
353.15 K, 10000 kPa	831.3 ± 4.3
353.15 K, 15000 kPa	836.7 ± 4.9
353.15 K, 20000 kPa	841.8 ± 5.5
353.15 K, 25000 kPa	846.7 ± 6.1
353.15 K, 30000 kPa	852.5 ± 6.7
353.15 K, 35000 kPa	858.4 ± 7.3
358.15 K, 100 kPa	811.6 ± 3.2
358.15 K, 1000 kPa	813.2 ± 3.3
358.15 K, 2000 kPa	813.9 ± 3.4
358.15 K, 3100 kPa	815.3 ± 3.5
358.15 K, 5000 kPa	817.7 ± 3.8
358.15 K, 10000 kPa	823.6 ± 4.4
358.15 K, 15000 kPa	829.1 ± 5
358.15 K, 20000 kPa	835.5 ± 5.6
363.15 K, 100 kPa	806.1 ± 3.2
363.15 K, 1000 kPa	807.5 ± 3.3
363.15 K, 2000 kPa	808.8 ± 3.4
363.15 K, 3000 kPa	810.1 ± 3.5
363.15 K, 3100 kPa	810.3 ± 3.5
363.15 K, 5000 kPa	812.8 ± 3.8
363.15 K, 10000 kPa	819.2 ± 4.4
363.15 K, 15000 kPa	824.9 ± 5
363.15 K, 20000 kPa	830.4 ± 5.6
368.15 K, 100 kPa	800.3 ± 3.2
368.15 K, 1000 kPa	802.1 ± 3.3
368.15 K, 2000 kPa	803.6 ± 3.4
368.15 K, 3000 kPa	804.8 ± 3.5
368.15 K, 3100 kPa	805 ± 3.5
368.15 K, 5000 kPa	807.7 ± 3.8
368.15 K, 10000 kPa	814.3 ± 4.4
368.15 K, 15000 kPa	820.3 ± 5
368.15 K, 20000 kPa	825.9 ± 5.6
373.15 K, 100 kPa	795.8 ± 3.2
373.15 K, 1000 kPa	797.2 ± 3.3
373.15 K, 2000 kPa	798.7 ± 3.4
373.15 K, 3000 kPa	800.2 ± 3.5
373.15 K, 3100 kPa	800.4 ± 3.5
373.15 K, 5000 kPa	803.1 ± 3.8
373.15 K, 10000 kPa	809.9 ± 4.4
373.15 K, 15000 kPa	815.9 ± 5
373.15 K, 20000 kPa	821.3 ± 5.6
378.15 K, 100 kPa	790.4 ± 3.2
378.15 K, 1000 kPa	791.9 ± 3.3
378.15 K, 2000 kPa	793.7 ± 3.4
378.15 K, 3000 kPa	795.2 ± 3.5
378.15 K, 3100 kPa	795.4 ± 3.6
378.15 K, 5000 kPa	798 ± 3.8
378.15 K, 10000 kPa	804.7 ± 4.4
378.15 K, 15000 kPa	810.8 ± 5
378.15 K, 20000 kPa	817.1 ± 5.6
383.15 K, 100 kPa	785.2 ± 3.2
383.15 K, 1000 kPa	786.7 ± 3.3
383.15 K, 2000 kPa	788.3 ± 3.4
383.15 K, 3000 kPa	789.9 ± 3.6
383.15 K, 3100 kPa	790 ± 3.6
383.15 K, 5000 kPa	792.9 ± 3.8
383.15 K, 10000 kPa	800.1 ± 4.4
383.15 K, 15000 kPa	806.7 ± 5
383.15 K, 20000 kPa	812.8 ± 5.6
388.15 K, 100 kPa	779.9 ± 3.2
388.15 K, 1000 kPa	781.6 ± 3.3
388.15 K, 2000 kPa	783.2 ± 3.5
388.15 K, 3000 kPa	785.2 ± 3.6
388.15 K, 3100 kPa	785.4 ± 3.6
388.15 K, 5000 kPa	788.4 ± 3.8
388.15 K, 10000 kPa	795.8 ± 4.4
388.15 K, 15000 kPa	802.4 ± 5
388.15 K, 20000 kPa	808.6 ± 5.6
393.15 K, 100 kPa	775.2 ± 3.2
393.15 K, 1000 kPa	776.4 ± 3.4
393.15 K, 2000 kPa	778.1 ± 3.5
393.15 K, 3000 kPa	779.5 ± 3.6
393.15 K, 3100 kPa	779.7 ± 3.6
393.15 K, 5000 kPa	782.8 ± 3.8
393.15 K, 10000 kPa	790.6 ± 4.4
393.15 K, 15000 kPa	797.7 ± 5
393.15 K, 20000 kPa	804.2 ± 5.6
